# Measured values reported in US20240217982A1, “KRAS INHIBITORS” (Bristol-Myers Squibb Company, priority 2021, published 2024).
# Key:
# KRAS G12D [1] = target: T1, KRAS G12D (Homo sapiens (Human), UniProt P01116, G12D); assay: KRAS G12D RAF Disruption Assay (HTRF); assay type: biochemical; details: recombinant GMPPNP-loaded KRAS G12D (5 nM), GST-RAF1 RBD (9 nM), HTRF signal
# Experimental: Recombinant GMPPNP-loaded KRAS G12D (5 nM) was treated with compound at room temperature for 20 minutes in assay buffer (50 mM Tris pH 7.5, 100 mM NaCl, 1 mM MgCl2, 1 mM DTT, 100 ug/mL BSA).
# KRAS G12D [2] = target: T1, KRAS G12D; assay: KRAS G12D Nucleotide Exchange Assay (HTRF); assay type: biochemical; details: recombinant GDP-loaded KRAS G12D (20 nM), BIODIPY-labeled GDP (400 nM), recombinant SOS (10 nM), HTRF signal
# Experimental: Recombinant GDP-loaded KRAS G12D (20 nM) was treated with compound at room temperature for 20 minutes in assay buffer (10 mM Hepes pH 7.4, 150 mM NaCl, 5 mM MgCl2, 0.0025% Igepal-CA630, 0.05% BSA, 1 mM DTT, 0.5 nM SA-Tb). BIODIPY-labeled GDP (400 nM) and recombinant SOS (10 nM) were added, and the reaction was incubated for 30 minutes.
# T1 sequence (P01116-2 other isoform, or with tags, fused parts or gaps G12D): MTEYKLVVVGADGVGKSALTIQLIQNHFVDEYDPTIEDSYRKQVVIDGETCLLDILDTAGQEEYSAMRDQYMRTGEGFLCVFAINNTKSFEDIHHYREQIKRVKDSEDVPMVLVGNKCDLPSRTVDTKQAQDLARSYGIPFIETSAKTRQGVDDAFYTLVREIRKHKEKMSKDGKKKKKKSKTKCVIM
"KRASG12D RAF Disruption Assay (IC50, µM) (KRAS G12D [1])","KRASG12D Nucleotide Exchange Assay (IC50, µM) (KRAS G12D [2])",SMILES
41500 nM,0.11 µM,"Cc1cc(N)nc(-c2c(Cl)cc3c(N4CC[C@H]5CC[C@@H](C4)N5)nc(OCC4(CN5CC[C@@H](F)C5)CC4)nc3c2F)c1C(F)(F)F [Example 10-4, 6-{6-chloro-4-[(1S,6R)-3,9-diazabicyclo[4.2.1]nonan-3-yl]-8-fluoro-2-[(1-{[(3R)-3-fluoropyrrolidin-1-yl]methyl}cyclopropyl)methoxy]quinazolin-7-yl}-4-methyl-5-(trifluoromethyl)pyridin-2-amine]"
2600 nM,0.02 µM,"Cc1cc(N)nc(-c2c(Cl)cc3c(N4CC[C@H]5CC[C@@H](C4)N5)nc(OCC4(CN5CCCCC5)CC4)nc3c2F)c1C(F)(F)F [Example 10-8, 6-{6-chloro-4-[(1S,6R)-3,9-diazabicyclo[4.2.1]nonan-3-yl]-8-fluoro-2-({1-[(piperidin-1-yl)methyl]cyclopropyl}methoxy)quinazolin-7-yl}-4-methyl-5-(trifluoromethyl)pyridin-2-amine]"
6300 nM,0.03 µM,"Cc1cc(N)nc(-c2ccc3c(N4CC[C@H]5CC[C@@H](C4)N5)nc(OC[C@@]45CCCN4C[C@H](F)C5)nc3c2F)c1C(F)(F)F [Example 12-1, 6-(2-{[(2R,7aS)-2-fluoro-hexahydro-1H-pyrrolizin-7a-yl]methoxy}-4-[(1S,6R)-3,9-diazabicyclo[4.2.1]nonan-3-yl]-8-fluoroquinazolin-7-yl)-4-methyl-5-(trifluoromethyl)pyridin-2-amine]"
2400 nM,0.02 µM,"Cc1cc(N)nc(-c2c(Cl)cc3c(N4CC[C@H]5CC[C@@H](C4)N5)nc(OCC4(CN5CCCC(F)C5)CC4)nc3c2F)c1C(F)(F)F (stereo partly drawn) [Example 10-10, 6-{6-chloro-4-[(1S,6R)-3,9-diazabicyclo[4.2.1]nonan-3-yl]-8-fluoro-2-({1-[(3-fluoropiperidin-1-yl)methyl]cyclopropyl}methoxy)quinazolin-7-yl}-4-methyl-5-(trifluoromethyl)pyridin-2-amine]"
220 nM,0.01 µM,"Cc1cc(N)nc(-c2c(Cl)cc3c(N4CC[C@H]5CC[C@@H](C4)N5)nc(OC[C@@]45C[C@@H](F)CN4CC4(CC4)C5)nc3c2F)c1C(F)(F)F [Example 13-1, 6-(2-{[(6′R, 7′aR)-6′-fluoro-hexahydrospiro[cyclopropane-1,2′-pyrrolizine]-7′a-yl]methoxy}-6-chloro-4-[(1S,6R)-3,9-diazabicyclo[4.2.1]nonan-3-yl]-8-fluoroquinazolin-7-yl)-4-methyl-5-(trifluoromethyl)pyridin-2-amine]"

# Continued, compound first:
SMILES,"KRASG12D RAF Disruption Assay (IC50, µM) (KRAS G12D [1])","KRASG12D Nucleotide Exchange Assay (IC50, µM) (KRAS G12D [2])"
"Oc1cc(-c2c(Cl)cc3c(N4CC[C@H]5CC[C@@H](C4)N5)nc(OC[C@]45CCCN4C[C@H](F)C5)nc3c2F)c2ccccc2c1 [Example 7, 4-(2-{[(2R,7aR)-2-fluoro-hexahydro-1H-pyrrolizin-7a-yl]methoxy}-6-chloro-4-[(1S,6R)-3,9-diazabicyclo[4.2.1]nonan-3-yl]-8-fluoroquinazolin-7-yl)naphthalen-2-ol]",480 nM,<0.002 µM
"CN1CCC[C@H]1COc1nc(N2C3CCNCC2CC3)c2cc(Cl)c(-c3cc(O)cc4ccccc34)c(F)c2n1 (stereo partly drawn) [Example 1-1, 4-(6-chloro-4-{3,9-diazabicyclo[4.2.1]nonan-9-yl}-8-fluoro-2-{[(2S)-1-methylpyrrolidin-2-yl]methoxy}quinazolin-7-yl)naphthalen-2-ol]",41990 nM,33.33 µM
"Oc1cc(-c2c(Cl)cc3c(N4CC[C@H]5CC[C@@H](C4)N5)nc(OC[C@@]45CCCN4C[C@H](F)C5)nc3c2F)c2ccccc2c1 (single isomer, unassigned) [Example 8-7]",510 nM,0.006 µM
"C#Cc1c(F)ccc2cc(O)cc(-c3ccc4c(N5CC[C@H]6CC[C@@H](C5)N6)nc(OC[C@@]56CCCN5C[C@H](F)C6)nc4c3F)c12 [Example 11-6, 4-(2-{[(2R,7aS)-2-fluoro-hexahydro-1H-pyrrolizin-7a-yl]methoxy}-4-[(1S,6R)-3,9-diazabicyclo[4.2.1]nonan-3-yl]-8-fluoroquinazolin-7-yl)-5-ethynyl-6-fluoronaphthalen-2-ol]",170 nM,0.02 µM
"Cc1cc(N)nc(-c2ccc3c(N4CC[C@H]5CC[C@@H](C4)N5)nc(OCC45CCCN4CC(F)(F)C5)nc3c2F)c1C(F)(F)F (stereo partly drawn) [Example 12-4, 6-{4-[(1S,6R)-3,9-diazabicyclo[4.2.1]nonan-3-yl]-2-[(2,2-difluoro-hexahydro-1H-pyrrolizin-7a-yl)methoxy]-8-fluoroquinazolin-7-yl}-4-methyl-5-(trifluoromethyl)pyridin-2-amine]",>100000 nM,1.1 µM
